Experimental data reported in patent US20250188085A1, “COMPOSITIONS AND METHODS FOR INHIBITION OF RAS” (THERAS, INC., priority 2022, published 2025).
Read-outs that look alike come from different tables or passages of the source.

Assays:
[1] = molecular target: T1, GTP-loaded KRAS4b (amino acids 1-169) G12C/C118S protein (Homo sapiens, UniProt P01116, C118S/G12C); experiment: Covalent cysteine 12 modification by MALDI-TOF MS, GTP-loaded KRAS G12C; type: binding; conditions: 15 minutes reaction time point
T1 construct: KRAS4b (amino acids 1-169) G12C/C118S protein; made in house
Method in brief: (§1)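 KRAS4b 1-169 G12C/C118S loaded with GDP, GppNHp or GTP was used at 1 μM in 20 mM HEPES, 150 mM NaCl, 1 mM MgCl2, pH 7.3, and incubated with compound (5 mM DMSO stock) at room temperature in the dark. % modification at 15 min is adduct peak height over total protein peak heights by linear-mode MALDI-TOF.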

[2] = molecular target: T2, GDP-loaded KRAS4b (amino acids 1-169) G12C/C118S protein (Homo sapiens, UniProt P01116, C118S/G12C); experiment: Covalent cysteine 12 modification by MALDI-TOF MS, GDP-loaded KRAS G12C; type: binding; conditions: 15 minutes reaction time point
T2 construct: KRAS4b (amino acids 1-169) G12C/C118S protein; made in house
Method in brief: as §1

[3] = molecular target: T3, GppNHp-loaded KRAS4b (amino acids 1-169) G12C/C118S protein (Homo sapiens, UniProt P01116, C118S/G12C); experiment: Covalent cysteine 12 modification by MALDI-TOF MS, GppNHp-loaded KRAS G12C; type: binding; conditions: 15 minutes reaction time point
T3 construct: KRAS4b (amino acids 1-169) G12C/C118S protein; made in house
Method in brief: as §1

[4] = molecular target: T4, Avi-KRAS G12C (1-169) GppNHp/RAF1 RBD-3×FLAG (52-151) (Homo sapiens, UniProt P01116, G12C); experiment: Raf1 RBD-KRAS G12C-GppNHp disruption (protein:protein interaction HTRF assay); type: biochemical
T4 construct: Avi-KRAS G12C (1-169) GppNHp/RAF1 RBD-3×FLAG (52-151)
Method in brief: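 HTRF measuring disruption of 50 nM Avi-KRAS G12C (1-169) loaded with GppNHp binding RAF1 RBD-3×FLAG (52-151), in pH 7.5 Tris buffer with 5 mM MgCl2, 0.1% BSA, 10% DMSO. KRAS preincubated with compound 1 h, then RBD 1 h, then detection reagents 1 h, all at room temperature. Compound titration 30-0.02 μM; activity expressed as percent of DMSO control.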

[5] = test system: pERK in NCI-H358 cells; experiment: Cell-based pERK HTRF assay; conditions: 30 min incubation, read-out: pERK in NCI-H358 cell inhibition IC50
Method in brief: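 Cells seeded at 4×10^4/well in RPMI with 10% FBS, then next day treated for 30 min with a 9-point, 3-fold series from 75 μM top concentration at 0.25% DMSO. Lysates were read for pERK by HTRF (d2/Eu cryptate antibodies) after 4–24 h at room temperature, emission at 615 nm.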

Compound	GTP-KRAS G12C percent of modification [1]	GDP-KRAS G12C percent of modification [2]	GppNHp-KRAS G12C percent of modification [3]	IC50 [4] [µM]	IC50 ([5]; Homo sapiens, NCI-H358, 0.5 h) [µM]	IC50 [5] [µM]
C=CC(=O)N1CC[C@@H](Oc2nc(OC[C@@]34CCCN3C[C@H](F)C4)nc3cc(-c4ccc(F)c5sc(N)c(C#N)c45)c(F)cc23)[C@@H]1COC [Compound 122]	D (percent of modification <10%)	C (10%≤modification <50%)	D (percent of modification <10%)	> 20	> 1	
C=CC(=O)N1CC[C@@H](Oc2nc(N3CC(N4CC5(CC5)C4)C3)nc3c(F)c(-c4ccc(F)c5sc(N)c(C#N)c45)ncc23)C1 [Compound 87]	D (percent of modification <10%)	A (percent of modification ≥70%)	C (10%≤modification <50%)	0.5 to 5	0.1 to 1	
C=CC(=O)N1CC[C@@H](Oc2nc(OC[C@@]34CCCN3C[C@H](F)C4)nc3c(Cl)c(-c4ccc(F)c5sc(N)c(C#N)c45)ncc23)[C@@H]1C [Compound 124]	D (percent of modification <10%)	B (50≤percent of modification <70%)	D (percent of modification <10%)	0.5 to 5	0.1 to 1	
C=CC(=O)N1C[C@H](Oc2nc(OC[C@@]34CCCN3C[C@H](F)C4)nc3cc(-c4ccc(F)c5sc(N)nc45)c(C(F)(F)F)cc23)[C@@H](F)C1 [Compound 59]	C (10%≤modification <50%)	A (percent of modification ≥70%)	B (50≤percent of modification <70%)	≤ 0.5	≤ 0.1	
C=CC(=O)N1CC[C@@H](Oc2nc(OC[C@@]34CCCN3C[C@H](F)C4)nc3c(F)c(-c4ccc(F)c5sc(N)c(C#N)c45)c(C(F)(F)F)cc23)C1 [Compound 46]	B (50≤percent of modification <70%)	B (50≤percent of modification <70%)	B (50≤percent of modification <70%)	≤ 0.5	≤ 0.1	
C=CC(=O)N1CC[C@@H](Oc2nc(OC[C@@]34CCCN3C[C@H](F)C4)nc3cc(-c4ccc(F)c5sc(N)c(C#N)c45)c(C#N)cc23)[C@@H]1C [Compound 120]	D (percent of modification <10%)	B (50≤percent of modification <70%)	D (percent of modification <10%)	5 to 20	0.1 to 1	
C=CC(=O)N1CC[C@@H](Oc2nc(OC[C@@]34CCCN3C[C@H](F)C4)nc3c(F)c(-c4ccc(F)c5sc(N)c(C#N)c45)c(C(F)(F)F)cc23)[C@@H]1COC [Compound 127]	D (percent of modification <10%)	B (50≤percent of modification <70%)	D (percent of modification <10%)	≤ 0.5	0.1 to 1	
C=CC(=O)N1CC[C@@H](Oc2nc(OC[C@@]34CCCN3C[C@H](F)C4)nc3c(F)c(-c4ccc(F)c5sc(N)c(C#N)c45)c(F)cc23)C1 [Compound 52]	D (percent of modification <10%)	D (percent of modification <10%)	D (percent of modification <10%)	5 to 20	> 1	
C=CC(=O)N1CC[C@@H](Oc2nc(OC[C@@]34CCCN3C[C@H](F)C4)nc3c(F)c(-c4ccc(F)c5sc(N)c(C#N)c45)c(Cl)cc23)[C@@H]1CC [Compound 117]	D (percent of modification <10%)	C (10%≤modification <50%)	D (percent of modification <10%)	> 20	> 1	
C=CC(=O)N1CC[C@@H](Oc2nc(OC[C@@]34CCCN3C[C@H](F)C4)nc3c(F)c(-c4ccc(F)c5sc(N)c(C#N)c45)ccc23)[C@@H]1COC [Compound 125]	D (percent of modification <10%)	C (10%≤modification <50%)	D (percent of modification <10%)	> 20	> 1	
C=CC(=O)N1CC[C@@H](Oc2nc(OC[C@@]34CCCN3C[C@H](F)C4)nc3c(C#N)c(-c4ccc(F)c5sc(N)c(C#N)c45)ccc23)[C@H]1C [Compound 104]	C (10%≤modification <50%)	A (percent of modification ≥70%)	C (10%≤modification <50%)	≤ 0.5	0.1 to 1	
C=CC(=O)N1CC[C@@H](Oc2nc(OC[C@@]34CCCN3C[C@H](F)C4)nc3c(F)c(-c4ccc(F)c5sc(N)c(C#N)c45)c(C(F)(F)F)cc23)[C@@H]1C [Compound 123]	D (percent of modification <10%)	B (50≤percent of modification <70%)	C (10%≤modification <50%)	≤ 0.5	≤ 0.1	
C=CC(=O)N1C[C@@H](F)[C@@H](Oc2nc(OC[C@@]34CCCN3C[C@H](F)C4)nc3c(F)c(-c4ccc(F)c5sc(N)c(C#N)c45)ccc23)C1 [Compound 80]	A (percent of modification ≥70%)	A (percent of modification ≥70%)	A (percent of modification ≥70%)	≤ 0.5	≤ 0.1	
C=CC(=O)N1C[C@H](Oc2nc(OC[C@@]34CCCN3C[C@H](F)C4)nc3c(F)c(-c4ccc(F)c5sc(N)c(C#N)c45)c(C(F)(F)F)cc23)C[C@@H]1COC (atropisomer, axis not shown) [Compound 85]	C (10%≤modification <50%)	C (10%≤modification <50%)	C (10%≤modification <50%)	≤ 0.5		≤ 0.1
C=CC(=O)N1CC[C@@H](Oc2nc(OC[C@@]34CCCN3C[C@H](F)C4)nc3c(F)c(-c4ccc(F)c5sc(N)c(C#N)c45)ncc23)C1 [Compound 56]	B (50≤percent of modification <70%)	A (percent of modification ≥70%)	A (percent of modification ≥70%)	≤ 0.5	≤ 0.1	
C=CC(=O)N1C[C@H](Oc2nc(OC[C@@]34CCCN3C[C@H](F)C4)nc3cc(-c4ccc(F)c5sc(N)c(C#N)c45)c(C(F)(F)F)nc23)C[C@H]1C [Compound 83]	C (10%≤modification <50%)	A (percent of modification ≥70%)	B (50≤percent of modification <70%)	≤ 0.5	≤ 0.1	
C=CC(=O)N1CC[C@@H](Oc2nc(OC[C@@]34CCCN3C[C@H](F)C4)nc3c(Cl)c(-c4ccc(F)c5sc(N)c(C#N)c45)ncc23)[C@H]1COC [Compound 110]	A (percent of modification ≥70%)	A (percent of modification ≥70%)	A (percent of modification ≥70%)	≤ 0.5	≤ 0.1	
C=CC(=O)N1CCC(Oc2nc(OC[C@@]34CCCN3C[C@H](F)C4)nc3c(F)c(-c4ccc(F)c5sc(N)c(C#N)c45)c(C(F)(F)F)cc23)C1(C)C (stereo partly shown) [Compound 61]	C (10%≤modification <50%)	C (10%≤modification <50%)	C (10%≤modification <50%)	≤ 0.5	≤ 0.1	
C=CC(=O)N1CC[C@@H](Oc2nc(OC[C@@]34CCCN3C[C@H](F)C4)nc3c(F)c(-c4ccc(F)c5sc(N)c(C#N)c45)c(Cl)cc23)[C@@H]1COC [Compound 126]	D (percent of modification <10%)	A (percent of modification ≥70%)	D (percent of modification <10%)	0.5 to 5	0.1 to 1	
C=CC(=O)N1CC[C@@H](Oc2nc(OC[C@@]34CCCN3C[C@H](F)C4)nc3c(F)c(-c4ccc(F)c5sc(N)c(C#N)c45)c(C(F)(F)F)cc23)[C@H]1CF [Compound 71]	D (percent of modification <10%)	C (10%≤modification <50%)	C (10%≤modification <50%)	≤ 0.5	≤ 0.1	
